According to PubChem BioAssay AID1259407 (Chemical Carcinogenesis Research Information System (CCRIS), 2018):
Active and inactive are the calls of the source. No rule for the calls is given here.

Test system: CCRIS mutagenicity, Ames/micronucleus/aberration tests
Test: CCRIS mutagenicity studies
[1] = Test System: AMES SALMONELLA TYPHIMURIUM, Strain/Indicator: TA98, Metabolic Activation: NONE, Method: PREINCUBATION
[2] = Test System: AMES SALMONELLA TYPHIMURIUM, Strain/Indicator: TA100, Metabolic Activation: NONE, Method: PREINCUBATION
[3] = Test System: AMES SALMONELLA TYPHIMURIUM, Strain/Indicator: TA1535, Metabolic Activation: NONE, Method: PREINCUBATION
[4] = Test System: AMES SALMONELLA TYPHIMURIUM, Strain/Indicator: TA100, Metabolic Activation: NONE, Method: STANDARD PLATE

## CC[C@H]1OC(=O)[C@H](C)[C@@H](O[C@H]2C[C@@](C)(OC)[C@@H](O)[C@H](C)O2)[C@H](C)[C@@H](O[C@@H]2O[C@H](C)C[C@H](N(C)C)[C@H]2O)[C@](C)(O)C[C@@H](C)/C(=N\OCOCCOC)[C@H](C)[C@@H](O)[C@]1(C)O
[1]
  mutagenic call: inactive; negative
Test System: AMES SALMONELLA TYPHIMURIUM, Strain/Indicator: TA98, Metabolic Activation: RAT, LIVER, S-9, PHENOBARBITAL, Method: PREINCUBATION
  mutagenic call: inactive; negative
[2]
  mutagenic call: inactive; negative
Test System: AMES SALMONELLA TYPHIMURIUM, Strain/Indicator: TA100, Metabolic Activation: RAT, LIVER, S-9, PHENOBARBITAL, Method: PREINCUBATION
  mutagenic call: inactive; negative
[3]
  mutagenic call: inactive; negative
Test System: AMES SALMONELLA TYPHIMURIUM, Strain/Indicator: TA1535, Metabolic Activation: RAT, LIVER, S-9, PHENOBARBITAL, Method: PREINCUBATION
  mutagenic call: inactive; negative
Test System: AMES SALMONELLA TYPHIMURIUM, Strain/Indicator: TA1537, Metabolic Activation: NONE, Method: PREINCUBATION
  mutagenic call: inactive; negative
Test System: AMES SALMONELLA TYPHIMURIUM, Strain/Indicator: TA1537, Metabolic Activation: RAT, LIVER, S-9, PHENOBARBITAL, Method: PREINCUBATION
  mutagenic call: inactive; negative
Test System: E. COLI, Strain/Indicator: WP2 UVRA, Metabolic Activation: NONE, Method: PREINCUBATION
  mutagenic call: inactive; negative
Test System: E. COLI, Strain/Indicator: WP2 UVRA, Metabolic Activation: RAT, LIVER, S-9, PHENOBARBITAL, Method: PREINCUBATION
  mutagenic call: inactive; negative

## O=C1/C(=N\Nc2ccc(/C=C/c3ccc(N/N=C4/C=C(S(=O)(=O)O)c5cccnc5C4=O)cc3S(=O)(=O)O)c(S(=O)(=O)O)c2)C=C(S(=O)(=O)O)c2cccnc21
Test System: Mouse lymphoma, Strain/Indicator: L5178Y (tk+/tk-), Metabolic Activation: None, Method: Suspension/plate
  mutagenic call: inactive; negative
Test System: Mouse lymphoma, Strain/Indicator: L5178Y (tk+/tk-), Metabolic Activation: Rat, Liver, S-9, Aroclor 1254, Method: Suspension/plate
  mutagenic call: inactive; negative

## O=[N+]([O-])OCC(CO[N+](=O)[O-])O[N+](=O)[O-]
Test System: AMES SALMONELLA TYPHIMURIUM, Strain/Indicator: TA100(NR), Metabolic Activation: NONE, Method: STANDARD PLATE
  mutagenic call: inactive; negative
[4]
  mutagenic call: inactive; negative
Test System: AMES SALMONELLA TYPHIMURIUM, Strain/Indicator: TA102, Metabolic Activation: HAMSTER, LIVER, S-9, AROCLOR 1254, Method: STANDARD PLATE
  mutagenic call: inactive; negative
Test System: AMES SALMONELLA TYPHIMURIUM, Strain/Indicator: TA102, Metabolic Activation: NONE, Method: STANDARD PLATE
  mutagenic call: inactive; negative
Test System: AMES SALMONELLA TYPHIMURIUM, Strain/Indicator: TA1535, Metabolic Activation: HAMSTER, LIVER, S-9, AROCLOR 1254, Method: STANDARD PLATE
  mutagenic call: active; positive
Test System: AMES SALMONELLA TYPHIMURIUM, Strain/Indicator: TA1535, Metabolic Activation: NONE, Method: STANDARD PLATE
  mutagenic call: active; positive
Test System: AMES SALMONELLA TYPHIMURIUM, Strain/Indicator: TA1538, Metabolic Activation: NONE, Method: STANDARD PLATE
  mutagenic call: inactive; negative
Test System: AMES SALMONELLA TYPHIMURIUM, Strain/Indicator: TA1975, Metabolic Activation: NONE, Method: STANDARD PLATE
  mutagenic call: inactive; negative
Test System: AMES SALMONELLA TYPHIMURIUM, Strain/Indicator: YG1026, Metabolic Activation: NONE, Method: STANDARD PLATE
  mutagenic call: inactive; negative

## CC(/C=C(/C#N)c1ccc(F)cc1)C(c1ccccc1)C(C#N)c1ccc(F)cc1 (stereo not drawn)
[4]
  mutagenic call: inactive; negative

## O=[N+]([O-])c1ccc(Nc2ccc(Cl)cc2)cc1
[1]
  mutagenic call: inactive; negative
Test System: AMES SALMONELLA TYPHIMURIUM, Strain/Indicator: TA98, Metabolic Activation: RAT, LIVER, S-9, AROCLOR 1254, Method: PREINCUBATION
  mutagenic call: active; positive

## C/C=C/C=C/C
[1]
  mutagenic call: inactive; negative
Test System: AMES SALMONELLA TYPHIMURIUM, Strain/Indicator: TA98, Metabolic Activation: S-9, Method: PREINCUBATION
  mutagenic call: inactive; negative
[2]
  mutagenic call: inactive; negative
Test System: AMES SALMONELLA TYPHIMURIUM, Strain/Indicator: TA100, Metabolic Activation: S-9, Method: PREINCUBATION
  mutagenic call: inactive; negative
[3]
  mutagenic call: inactive; negative
Test System: AMES SALMONELLA TYPHIMURIUM, Strain/Indicator: TA1535, Metabolic Activation: S-9, Method: PREINCUBATION
  mutagenic call: inactive; negative
Test System: E.COLI, Strain/Indicator: WP2UVRA/PKM101, Metabolic Activation: NONE, Method: PREINCUBATION
  mutagenic call: inactive; negative
Test System: E.COLI, Strain/Indicator: WP2UVRA/PKM101, Metabolic Activation: S-9, Method: PREINCUBATION
  mutagenic call: inactive; negative

## C[C@@H](C(=O)O)N(N=[N+]=[N-])C(=O)OC(C)(C)C
[4]
  mutagenic call: active; positive
